Experiment [1] deals with BAP1 deficient mesothelioma cells. Kind of experiment: short term assay, drug response curve (Alamar blue), 384-well. The format is cell-based, mouse. Particulars: single agent; BNC versus NC derived early passage cell lines; FIG. 4B, 4C. How it is done: For short term colony formation assay, the mesothelioma cell lines were seeded in 500 cells per well in a 384-well plate. The next day drugs (GSK126, AZD4547, AZD2461, ABT-263) were added in a matrix format at the indicated concentration using HP D300 digital dispenser (HP) and cells were grown in presence of drug(s) or DMSO control for 5 days. Thereafter, 10% v/v Alamar blue was added to the well and incubated at 370 C for 4 hours. The plates were read with Tecan reader. The data were analyzed and plotted for drug response curve.
For orientation: The colour change of resazurin is a common sign of viable cells or microbes.

In another experiment the test system is FGF7, FGF2 and FGFR2. Nature of the experiment: gene expression analysis (RNA sequencing) after EZH2 inhibitor treatment. The format is cell-based, mouse. Particulars: GSK126 treated versus DMSO treated Bap1 deficient cells; log 2 expression; FIG. 4E. How it is done:
For gene expression analysis, RNA was isolated from tumor tissue with the Qiagen All prep DNA/RNA kit. Quantification and quality assessment for RNA were performed with a Bioanalyzer (RIN >6.5) (Agilent, Santa Clara, Calif., USA).
Sequencing libraries were constructed with a TruSeq mRNA Library Preparation Kit using poly-A-enriched RNA (Illumina, San Diego, Calif., USA). The samples were run on a HiSeq 2500 Illumina sequencer for cluster generation and sequencing.
For RNA sequencing and expression analysis, Illumina TruSeq mRNA libraries were sequenced with 51 base single reads on a HiSeq2000 using V3 chemistry (Illumina Inc., San Diego). The sequence reads were mapped to the mouse genome (mm10), using TopHat (2.0.12). TopHat was run with default. Reads with mapping quality less than 10 and non-primary alignments were discarded. Remaining reads were counted using HTSeq-cout. Statistical analysis of the differential expression of genes was performed using DESeq2. Genes with False Discovery Rate (FDR) for differential expression lower than 0.05 were considered significant. Batch effect within tumor samples from different source was corrected using ComBat with default options through the Bioconductor sva package 3.10.

Two molecules from US20220023293A1, “EZH2- FGFR INHIBITION IN CANCER” (Stichting Het Nederlands Kanker Instituut-Antoni van …, priority 2018, published 2022) can be followed below.

`COc1cc(CCc2cc(NC(=O)c3ccc(N4C[C@@H](C)N[C@@H](C)C4)cc3)n[nH]2)cc(OC)c1` [AZD4547, N-[5-[2-(3,5-dimethoxyphenyl)ethyl]-1H-pyrazol-3-yl]-4-[(3R,5S)-3,5-dimethylpiperazin-1-yl]benzamide]: in experiment [1], the “drug response of BAP1 deficient versus proficient mesothelioma cells (dose response curve)” value was “hypersensitive”.
Turning to `CC[C@H](C)n1cc(C)c2c(C(=O)NCc3c(C)cc(C)[nH]c3=O)cc(-c3ccc(N4CCNCC4)nc3)cc21` [GSK126, 1-[(2S)-butan-2-yl]-N-[(4,6-dimethyl-2-oxo-1H-pyridin-3-yl)methyl]-3-methyl-6-(6-piperazin-1-ylpyridin-3-yl)indole-4-carboxamide], in experiment [1], the “drug response of BAP1 deficient versus proficient mesothelioma cells (dose response curve)” value is on record as “hypersensitive”. The “expression of FGF/FGFR pathway genes (FGF7, FGF2, FGFR2)” value in the experiment with FGF7, FGF2 and FGFR2 is given as “upregulation of FGF/FGFR pathway genes”.
